In assay [1] the test system is HS-PSS. Description: relative IC50 (inflection point of fitted dose-response curve, CellTox-Green cytotoxicity, 72 h; top asymptote may be below 50%); higher = less potent. The method in brief: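 MPNST cell lines and primary human Schwann cells were incubated 72 h at 37 °C in 384-well plates holding five 10-fold compound dilutions. CellTox-Green was added before seeding at a final 1:1000 dilution and reported fluorescence from DNA released by disrupted cells. Signals were scaled to vehicle and positive-control wells, and cultures failing plate quality control were dropped. Drug sensitivity score and relative IC50 come from four-parameter logistic fits, with IC50 censored at the top concentration.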

In assay [2] the test system is HS-Sch-2. In words: relative IC50 (inflection point of fitted dose-response curve, CellTiter-Glo viability, 72 h; top asymptote may be below 50% inhibition); higher = less potent. Put shortly:
(§1)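 MPNST cell lines and primary human Schwann cells (750–1000 cells per well) went into 384-well plates preprinted with each compound at five concentrations in 10-fold steps. Plates were incubated 72 h at 37 °C, 5% CO2. Viability was read as CellTiter-Glo ATP luminescence, scaled between vehicle and positive-control wells, with duplicates averaged where present. Percent inhibition is at the top concentration; drug sensitivity score and relative IC50 (censored at top concentration) come from four-parameter logistic fits.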
A general note: Cellular ATP, detected with luciferase, serves as a proxy for viable cell number.

In assay [3] the test system is YST-1. The assay is described as above. The method in brief: as §1
Assay [4] deals with HS-PSS. The assay is described as above. Put shortly: as §1

SMILES strings stand for the structures.

As for `CCOc1ccn(-c2ccc(F)cc2)c(=O)c1C(=O)Nc1ccc(Oc2ccnc(N)c2Cl)c(F)c1`, the “relative IC50” value in assay [1], in assay [2] and in assay [3] was above 2500 nM in each case.
Turning to `COc1ccc(Cn2ccc3ccc(C(=O)NO)cc32)cc1`, the “relative IC50” value in assay [1] was above 10000 nM; in assay [2] it was 3750 nM; in assay [3] it was 1600 nM.
For the compound `Cc1cccc(CC(=O)N2CCc3c2ccc(-c2cn(C)c4ncnc(N)c24)c3F)n1`, the “relative IC50” value in assay [4] turned out to be 993 nM.
For `O=c1[nH]c(C2CCCN2)nc2c1oc1ccc(Cl)cc12` (stereo not given), the “relative IC50” value worked out at 1500 nM in assay [4] and 1220 nM in assay [3].
With `O=C(Nc1cccc(C(F)(F)F)c1)Nc1cc(S(=O)(=O)NC2CC2)ccc1-c1ccsc1` [AGI-6780], the “relative IC50” value in assay [1] was above 10000 nM; in assay [2], 1400 nM.
For `COc1ccc2c(OCc3nnc4ccc(-c5ccccc5)nn34)ccnc2c1` [AMG-208], the “relative IC50” value in assay [1], in assay [2] and in assay [3] was above 2500 nM throughout.
Regarding `CC(C)[C@@H](CS(=O)(=O)C(C)C)N1C(=O)[C@@](C)(CC(=O)O)C[C@H](c2cccc(Cl)c2)[C@H]1c1ccc(Cl)cc1` [AMG-232], the “relative IC50” value in assay [1] is above 1000 nM; in assay [2] it was above 1000 nM; in assay [3] it was 190 nM.
In the case of `Cc1csc(-c2nnc(Nc3ccc(Oc4ncccc4-c4ccnc(N)n4)cc3)c3ccccc23)c1` [AMG-900], the “relative IC50” value was above 1000 nM in assay [1], 326 nM in assay [2] and 11 nM in assay [3].
On to `CC1CCC(n2c3cnccc3c3cnc(Nc4ccc5c(n4)CCN(C(=O)CO)C5)nc32)CC1` (stereo not given) [AMG-925], for which the “relative IC50” value in assay [1] and in assay [4] was above 1000 nM in each case.
`COCC1(CO)C(=O)C2CCN1CC2` (stereo not given) [APR-246]: the “relative IC50” value in assay [1], in assay [2] and in assay [3] was above 10000 nM each time.
Turning to `NC1(C(=O)N[C@@H](CCO)c2ccc(Cl)cc2)CCN(c2ncnc3[nH]ccc23)CC1` [AZD-5363], the figures for the “relative IC50” value in assay [1], in assay [2] and in assay [3] were above 10000 nM, 3470 nM and 2090 nM, respectively.
On to `CCN1CCN(Cc2ccc(Nc3ncc(F)c(-c4cc(F)c5nc(C)n(C(C)C)c5c4)n3)nc2)CC1` [Abemaciclib], for which the “relative IC50” value in assay [1] was above 2500 nM; in assay [2], 1010 nM; in assay [3], 27.5 nM.
For `Cn1ncc(Cl)c1-c1cc(C(=O)N[C@H](CN)Cc2cccc(F)c2)sc1Cl` [Afuresertib], the “relative IC50” value in assay [1] is above 1000 nM; in assay [2], above 1000 nM; in assay [3], 327 nM.
With `N#CC1(c2ccc(NC(=O)c3cccnc3NCc3ccncc3)cc2)CCCC1` [Apatinib], the “relative IC50” value in assay [1] and in assay [2] was above 10000 nM each time.
As for `Nc1nc(Nc2ccc3c(c2)CC[C@@H](N2CCCC2)CC3)nn1-c1cc2c(nn1)-c1ccccc1CCC2` [BGB324], the results for the “relative IC50” value in assay [1], in assay [2] and in assay [3] were above 10000 nM, 570 nM and 2140 nM, respectively.
For `CC[C@H](NC(=O)[C@H](C)NC)C(=O)N1C[C@@H](O)C[C@H]1Cc1c(-c2[nH]c3cc(F)ccc3c2C[C@@H]2C[C@H](O)CN2C(=O)[C@H](CC)NC(=O)[C@H](C)NC)[nH]c2cc(F)ccc12` [Birinapant], in that order: above 1000 nM, above 1000 nM and above 1000 nM.
Consider `C[C@H](Nc1ncnc2nc[nH]c12)c1cc2cccc(Cl)c2c(=O)n1-c1ccccc1` [Duvelisib], for which, in assay [4], the “relative IC50” value is above 500 nM.
Turning to `NS(=O)(=O)NCCNc1nonc1/C(=N/O)Nc1ccc(F)c(Br)c1` [Epacadostat], the “relative IC50” value in assay [1] and in assay [4] was above 10000 nM throughout.
Turning to `O=C(Nc1nc2cccc(-c3ccc(CN4CCS(=O)(=O)CC4)cc3)n2n1)C1CC1` [Filgotinib], the results for the “relative IC50” value in assay [1], in assay [2] and in assay [3] were above 10000 nM, 2680 nM and 3690 nM, respectively.
`CNc1nc(Nc2cn(C(C)(C)C#N)nc2C)ncc1C(F)(F)F` [GNE-0877]: the “relative IC50” value in assay [1], in assay [2] and in assay [3] was above 1000 nM throughout.
As for `CCCNC(=O)Nc1ccc(Oc2ncnc3cc(OC)c(OC)cc23)cc1Cl` [KRN-633], the “relative IC50” value in assay [1], in assay [2] and in assay [3] was above 2500 nM each time.
As to `O=C(c1ccc(/C=C/c2n[nH]c3ccccc23)cc1)N1CCNCC1` [KW-2449], the results for the “relative IC50” value in assay [1], in assay [2] and in assay [3] were above 2500 nM, above 2500 nM and 509 nM, respectively.
`COc1cc2nccc(Oc3ccc(NC(=O)NC4CC4)c(Cl)c3)c2cc1C(N)=O` [Lenvatinib]: the “relative IC50” value in assay [1] and in assay [4] was above 2500 nM each time.
As to `CNC(=O)c1cccc2cc(Oc3ccnc4cc(OCC5(N)CC5)c(OC)cc34)ccc12` [Lucitanib], the “relative IC50” value in assay [1] was above 10000 nM; in assay [2] it was 3710 nM; in assay [3] it was 1420 nM.
Take `O=C(c1cccc(Cl)c1F)N1CCN(Cc2cccc(Nc3nccs3)n2)CC1` [MK-8745]: the “relative IC50” value was above 2500 nM in assay [1], 623 nM in assay [2] and 231 nM in assay [3].
The like results for `CN(C)C(=N)NC(=N)N` [Metformin] were, in that order, above 100000 nM, above 100000 nM and above 100000 nM.
In the case of `CCN1CCN(Cc2ccc(-c3cc4c(N[C@H](C)c5ccccc5)ncnc4[nH]3)cc2)CC1` [NVP-AEE788], the “relative IC50” value in assay [1] and in assay [2] was above 2500 nM throughout.
In the case of `CNC(=O)c1ccc(-c2cnc3ncc(Cc4ccc5ncccc5c4)n3n2)cc1F` [NVP-INC280], the “relative IC50” value in assay [1] and in assay [4] was above 1000 nM each time.
For `Cc1[nH]c(/C=C2\C(=O)Nc3ccccc32)c(C)c1CCC(=O)O` [Orantinib], the “relative IC50” value in assay [1] is 205 nM; in assay [2], above 10000 nM.
For `O=C(Nc1cc(Cl)cc2c1[nH]c1cnccc12)c1cccnc1` [PS-1145], in that order: above 25000 nM and above 25000 nM.
Take `FC(F)(F)c1ccc(CNc2ccc(Cc3c[nH]c4ncc(Cl)cc34)cn2)cn1` [Pexidartinib]: the “relative IC50” value in assay [1] was above 10000 nM; in assay [4] it was 1740 nM.
On to `c1cc(CN2CCCNCCNCCCNCC2)ccc1CN1CCCNCCNCCCNCC1` [Plerixafor], for which the “relative IC50” value in assay [1], in assay [2] and in assay [3] was above 10000 nM throughout.
Take `CC[C@H](C)C(=O)O[C@H]1C[C@H](O)C=C2C=C[C@H](C)[C@H](CC[C@@H](O)C[C@@H](O)CC(=O)O)[C@H]21` [Pravastatin]: the “relative IC50” value in assay [1], in assay [2] and in assay [3] was above 10000 nM in each case.
With `Cc1nc(=O)c2cc(CN(C)c3ccc(C(=O)N[C@@H](CCC(=O)O)C(=O)O)s3)ccc2[nH]1` [Raltitrexed], the “relative IC50” value is above 1000 nM in assay [1], 22.7 nM in assay [2] and 11.2 nM in assay [3].
For `O=C(Nc1cccc(Cl)c1)Nc1ncc(CCNc2ncnc3ccsc23)s1` [SNS-314], in that order: above 1000 nM, 185 nM and 8.84 nM.
As for `CNC(=O)CN1CCC(Oc2cc3c(Nc4cccc(Cl)c4F)ncnc3cc2OC)CC1` [Sapitinib], the “relative IC50” value in assay [1] and in assay [4] was above 1000 nM each time.
For `CCc1nc(-c2cccc(C)c2)c(-c2ccnc(NC(=O)c3ccccc3)c2)s1` [TAK-715], the figures for the “relative IC50” value in assay [1] and in assay [2] were above 10000 nM and 1210 nM, respectively.
With `Nc1nc(N)c2nc(-c3cccc(O)c3)c(-c3cccc(O)c3)nc2n1` [TG100-115], the “relative IC50” value in assay [1] and in assay [4] was above 10000 nM in each case.
In the case of `Cn1ncnc1[C@H]1c2n[nH]c(=O)c3cc(F)cc(c23)N[C@@H]1c1ccc(F)cc1` [Talazoparib], the “relative IC50” value was above 1000 nM in assay [1], 105 nM in assay [2] and 9.15 nM in assay [3].
`C[C@@H]1CN(Cc2ccc(F)cc2)[C@@H](C)CN1C(=O)c1cc2c(C(=O)C(=O)N(C)C)cn(C)c2cc1Cl` [Talmapimod]: the “relative IC50” value in assay [1] is above 10000 nM; in assay [2], above 10000 nM; in assay [3] it was 283 nM.
For `COc1cccc2c1c(O)c(C(=O)N(C)c1ccc(C(F)(F)F)cc1)c(=O)n2C` [Tasquinimod], the “relative IC50” value in assay [1] and in assay [2] was above 10000 nM throughout.
In the case of `COC(=O)c1ccc2c(c1)[nH]c1ncnc(NCCCN3CCCCC3)c12` [UM729], the results for the “relative IC50” value in assay [1], in assay [2] and in assay [3] were above 10000 nM, 3140 nM and 560 nM, respectively.
For the compound `NC(=O)c1cccc(-c2cccc(OC(=O)NC3CCCCC3)c2)c1` [URB597], the “relative IC50” value in assay [1], in assay [2] and in assay [3] was above 1000 nM each time.
Regarding `CS(=O)(=O)c1ccc(-c2cnc(N)c(C(=O)Nc3ccccc3)n2)cc1` [VE-821], the “relative IC50” value in assay [1], in assay [2] and in assay [3] was above 10000 nM each time.
In the case of `O=C(Nc1ccc(-c2ccnc(Nc3ccc(N4CCOCC4)cc3)n2)cc1)[C@H]1CCCN1` [XL019], the figures for the “relative IC50” value in assay [1] and in assay [4] were above 10000 nM and 2850 nM, respectively.

As usually defined, the relative IC50 is the concentration halfway between the upper and lower plateau of the fitted curve.

Values taken from the supplement of paper PMC5579334.
